# Test results from paper PMC10579241, “Impact of trifluoromethyl and sulfonyl groups on the biological activity of novel aryl-urea derivatives: synthesis, in-vitro, in-silico and SAR studies” (Scientific Reports, 2023).
# Marks after values point to notes of the source that are not given here.
# Experiments:
# CDKN2A = test: qRT-PCR, CDKN2A in PACA2 cells; format: cell-based, human; conditions: versus negative untreated sample
# PALB2 = test: qRT-PCR, PALB2 in PACA2 cells; format: cell-based, human; conditions: versus negative untreated sample
# BRCA1 = test: qRT-PCR, BRCA1 in PC3 cells; format: cell-based, human; conditions: versus negative samples
# FASN = test: qRT-PCR, FASN in HCT116 cells; format: cell-based, human; conditions: versus negative samples
# colon cancer (HCT116) = test: cells; format: cell-based; conditions: Homo sapiens, 48 h
# PACA2 [1] = test: DNA fragmentation assay, PACA2; format: cell-based, human
# HCT116 [2] = test: DNA fragmentation assay, HCT116; format: cell-based, human
# [3] = test system: osteosarcoma cell line (HOS); test: cells; format: cell-based; conditions: Homo sapiens, 48 h
# A549 [4] = test: DNA damage, comet assay, A549; format: cell-based, human; conditions: of 400 cells analyzed
# HCT116 [5] = test: DNA damage, comet assay, HCT116; format: cell-based, human
# [6] = test system: hepatocellular carcinoma cell line (HePG2); test: cells; format: cell-based; conditions: Homo sapiens, 48 h
# in vitro = format: cell-based; conditions: human, BJ1 normal skin fibroblast cells, 100 μg/mL
# [7] = test system: normal skin fibroblast cell line (BJ1); test: cells; format: cell-based; conditions: Homo sapiens, Skin fibroblast, MTT, 48 h
# KRAS = test: qRT-PCR, KRAS in A549 cells; format: cell-based, human; conditions: versus negative samples
# PC3 [8] = test: DNA fragmentation assay, PC3; format: cell-based, human
# BRCA2 = test: qRT-PCR, BRCA2 in PC3 cells; format: cell-based, human; conditions: versus negative samples
# PC3 [9] = test: DNA damage, comet assay, PC3; format: cell-based, human
# A549 [10] = test: DNA fragmentation assay, A549; format: cell-based, human
# PACA2 [11] = test: DNA damage, comet assay, PACA2; format: cell-based, human
# TP53 = test: qRT-PCR, TP53 in HCT116 cells; format: cell-based, human; conditions: versus negative samples
# Protocol: RNA was extracted from pancreas, prostate, lung and liver cell lines using a total RNA purification kit (Qiagen, Hilden, Germany) according to the manufacturer's instructions. An aliquot of RNA was diluted in RNase-free water to estimate RNA quantity. Aliquots were used immediately for reverse transcription (RT). cDNA synthesis was performed on extracted RNA, which was treated with DNase (Invitrogen, Germany) to remove any possible DNA contamination. The DNase-treated RNA was reverse transcribed into first-strand cDNA using the RevertAid First Strand cDNA Synthesis kit (Fermantas) according to the manufacturer's instructions. Determination of the pancreas, prostate, lung and liver cell line cDNA copy number was carried out using StepOne™ Real-Time PCR System from Applied Biosystems (Thermo Fisher Scientific, Waltham, MA USA). Gene expressions were detected by real-time PCR, which was performed using the Rotor-Gene Q system (Qiagen Company). A 25 µL reaction mixture consisted of 12.5 µL SYBR® Premix Ex TaqTM (TaKaRa, Biotech. Co. Ltd.), 0.5 µL of each primer (10 PMole) (Table 1), 1 µL cDNA (50 ng) and 10.5 µL RNase free water. The optimum amplification conditions were chosen empirically according to each tested gene. Generally, the amplification conditions include initial incubation (95.0 °C for 3 min), then 40 cycles of amplification with denaturation (95.0 °C for 15 s), annealing (55.0 °C for 30 s) and extension (72.0 °C for 30 s) steps then 71 cycles which started at 60.0 °C and then increased about 0.5 °C every 10 s up to 95.0 °C. Mean cycle threshold (Ct) values of triplicate samples are used for analysis. The Ct value indicates the fractional cycle number at which the amount of amplified target reaches a fixed threshold. Data from real-time PCR were analyzed using 2^−∆∆Ct method[38]–[40]. Data were represented as the fold change in target gene expression normalized to a House-Keeping gene (HKG) and relative to the control. β-actin was used as a HKG to normalize input RNA amount, RNA quality and reverse transcription efficiency.
# prostate cancer (PC3) = test: cells; format: cell-based; conditions: Homo sapiens, 48 h
# [12] = test system: human lung carcinoma (A549); test: cells; format: cell-based; conditions: 48 h
# skin cancer (A431) = test: cells; format: cell-based; conditions: Homo sapiens, 48 h
# EGFR = test: qRT-PCR, EGFR in A549 cells; format: cell-based, human; conditions: versus negative samples
# [13] = test system: pancreatic cancer cell line (PACA2); test: cells; format: cell-based; conditions: Homo sapiens, 48 h
smiles,measurement,setting,value
"COc1cccc2c1C(=O)c1c(O)c3c(c(O)c1C2=O)C[C@@](O)(C(=O)CO)C[C@@H]3O[C@H]1C[C@H](N)[C@H](O)[C@H](C)O1 [Doxorubicin, reference compound]",CDKN2A gene expression level,CDKN2A,significantly reduced
same,PALB2 gene expression level,PALB2,significantly reduced
same,BRCA1 gene expression level,BRCA1,decreased significantly
same,FASN gene expression level,FASN,suppression
same,mortality at 100 µg/mL,"colon cancer (HCT116); HCT-116, 100 μg/mL",100%
same,IC50,"colon cancer (HCT116); HCT-116, MTT",69.2 ± 0.1 µM
same,Change (DNA fragmentation versus untreated cells),PACA2 [1],18.00
same,DNA fragmentation % M ± SEM,"PACA2 [1]; IC50 concentration, 24 h",30.1 ± 0.62^b %
same,Inhibition,PACA2 [1]; doxorubicin = 0.0,0.0
same,Change (DNA fragmentation versus untreated cells),HCT116 [2],21.00
same,Inhibition,HCT116 [2]; doxorubicin = 0.00,0.00
same,mortality at 100 µg/mL,[3]; 100 μg/mL,100%
same,IC50,[3]; MTT,24.3 ± 0.24 µM
same,"Class 0 (no tail), number of cells",A549 [4],314
same,"Class 1 (tail length < diameter of nucleus), number of cells",A549 [4],25
same,"Class 2 (tail length between 1 and 2 × the diameter of nucleus), number of cells",A549 [4],32
same,"Class 3 (tail length > 2 × the diameter of nucleus), number of cells",A549 [4],29
same,"No. of cells, Comets",A549 [4],86
same,DNA damaged cells % (mean ± SEM),HCT116 [5],21.26 ± 0.48^ab %
same,"Class 0 (no tail), number of cells",HCT116 [5]; of 400 cells analyzed,315
same,"Class 1 (tail length < diameter of nucleus), number of cells",HCT116 [5]; of 400 cells analyzed,33
same,"Class 2 (tail length between 1 and 2 × the diameter of nucleus), number of cells",HCT116 [5]; of 400 cells analyzed,24
same,"Class 3 (tail length > 2 × the diameter of nucleus), number of cells",HCT116 [5]; of 400 cells analyzed,28
same,"No. of cells, Comets",HCT116 [5]; of 400 cells analyzed,85
same,mortality at 100 µg/mL,[6]; 100 μg/mL,100%
same,IC50,[6]; MTT,39.7 ± 0.18 µM
same,"mortality at 48 h, 100 µg/mL",in vitro,100%
same,IC50,[7],24.8 ± 0.52 µM
same,KRAS gene expression level,KRAS,significant reduction
same,Change (DNA fragmentation versus untreated cells),PC3 [8],20.1
same,DNA fragmentation % M ± SEM,"PC3 [8]; IC50 concentration, 24 h",31.7 ± 0.85^b %
same,Inhibition,PC3 [8]; doxorubicin = 0.0,0.0
same,BRCA2 gene expression level,BRCA2,decreased significantly
same,DNA damaged cells % (mean ± SEM),PC3 [9],20.76 ± 1.38^b %
same,"Class 0 (no tail), number of cells",PC3 [9]; of 400 cells analyzed,317
same,"Class 1 (tail length < diameter of nucleus), number of cells",PC3 [9]; of 400 cells analyzed,39
same,"Class 2 (tail length between 1 and 2 × the diameter of nucleus), number of cells",PC3 [9]; of 400 cells analyzed,30
same,"Class 3 (tail length > 2 × the diameter of nucleus), number of cells",PC3 [9]; of 400 cells analyzed,14
same,"No. of cells, Comets",PC3 [9]; of 400 cells analyzed,83
same,Change (DNA fragmentation versus untreated cells),A549 [10],19.5
same,DNA fragmentation % M ± SEM,"A549 [10]; IC50 concentration, 24 h",30.9 ± 1.64^a %
same,Inhibition,A549 [10]; doxorubicin = 0.0,0.0
same,DNA damaged cells % (mean ± SEM),PACA2 [11],20.25 ± 0.75^a %
same,"Class 1 (tail length < diameter of nucleus), number of cells",PACA2 [11]; of 400 cells analyzed,28
same,"Class 2 (tail length between 1 and 2 × the diameter of nucleus), number of cells",PACA2 [11]; of 400 cells analyzed,26
same,"Class 3 (tail length > 2 × the diameter of nucleus), number of cells",PACA2 [11]; of 400 cells analyzed,27
same,"No. of cells, Comets",PACA2 [11]; of 400 cells analyzed,81
same,TP53 gene expression level,TP53,suppression
same,mortality at 100 µg/mL,prostate cancer (PC3); 100 μg/mL,100%
same,IC50,prostate cancer (PC3); MTT,43.8 ± 0.47 µM
same,mortality at 100 µg/mL,[12]; 100 μg/mL,100%
same,IC50,[12]; MTT,52.1 ± 0.28 µM
same,mortality at 100 µg/mL,"skin cancer (A431); A-431, 100 μg/mL",100%
same,IC50,"skin cancer (A431); A-431, MTT",45.8 ± 0.15 µM
same,EGFR gene expression level,EGFR,significant reduction
same,mortality at 100 µg/mL,"[13]; PaCa-2, 100 μg/mL",100%
same,IC50,"[13]; PaCa-2, MTT",52.1 ± 0.19 µM
